Data set [1] has as its system neuromast ciliated cells of Zebrafish. Kind of data set: Ototoxicity induced by gentamycin in Zebrafish: protection of neuromast ciliated cells (DASPEI staining). It counts as in vivo. The note with it: for EC50: Danio rerio, 0, 25, 50, 100 μM, co-treatment with gentamycin 1 μg/ml, concentration which allows 50% of stained cells to be visualized, read-out: EC50 μM (survival of the ciliated cells in % of the control); for control % (% staining signal of the ciliated cells): positive control = 100%. An excerpt: Ototoxicity Induced after a Treatment with Gentamycin: Protective Effect of the Compounds According to the Invention
Principle of the test: gentamycin and other aminoglycosides cause damage to ciliated cells and a hearing loss in humans. Zebrafish have sensory organs known as neuromasts on the surface of their body. These neuromast ciliated cells are structurally and functionally similar to the internal ciliated cells of the human ear. In these fish, the neuromast ciliated cells can be stained with DASPEI (2,4-dimethyl-aminostyryl-N-ethyl pyridinium iodide) and this staining reflects the number of functional ciliated cells.
Damage to the internal ciliated cells is induced in the Zebrafish with a gentamycin treatment. In order to test the protective effect of the compound to be tested on ciliated cells damaged by gentamycin, the compound was administered as a co-treatment with gentamycin. The internal ciliated cells are then stained and quantified.
The study is carried out on 5-day old fish, incubated with 1 μg/ml of gentamycin for 24 hours in the presence or the absence of the compound. Controls are carried out in parallel; vehicle alone (1% DMSO; positive control). Fish treated with gentamycin only are the negative controls.
The EC50 (concentration of the substance to be tested which protects 50% of the cells from cell death) is calculated from this concentration-effect.
The DASPEI staining is carried out to visualize the ciliated cells in vivo (n=6 per group). Morphometric analysis is used to quantify the staining signal of the ciliated cells. The DASPEI staining signal of the positive controls was defined as 100%.
Positive control (Zebrafish-1% DMSO); Negative control (Zebrafish-1% DMSO-gentamycin 1 μg/ml) and effect of the products (Zebrafish-1% DMSO-gentamycin-compound). Experiment carried out on 6 animals per group.

The next data set deals with calpain. The data set is described as follows: Effect in situ on the calpain enzymatic activity of human skeletal cells (SKM), maitotoxin-activated, Suc-Leu-Tyr-AMC substrate. It counts as cell-based. The note with it: read-out: IC50 (concentration which inhibits 50% of the enzyme activity), SKM myotubes, 3 h at 30° C. As for the experimental part:
Effect In Situ of the Compounds According to the Invention on the Calpain Enzymatic Activity of Human Skeletal Cells (SKM)
The principle of the test is the following: maitotoxin is a toxin which causes the opening of the calcium channels of cells. The resulting intra-cellular flow of calcium is at the origin of the death of the cell. During this process of cell death, a cysteine-dependent protease, calpain, is activated. The test consists of incubating the cells in the presence of maitotoxin, in order to activate the calpain enzyme, and adding a calpain substrate which fluoresces when the enzyme cleaves this substrate. Finally, calpain inhibitors are tested.
The myoblasts are seeded at 2500 cells per well in 96-well plates in a DMEM 10% FCS (foetal calf serum) culture medium supplemented with amphotericin B, human recombinant epidermal growth factor and dexamethasone. Three days after seeding, the cells have adhered to the bottom of the well, the differentiation of the cells to myotubes is induced by adding 100 μl of DMEM F12 medium containing 2% horse serum. […] The background noise is determined by preparing additional control wells without MTX. […] The plates are stirred, the fluorescence is read at 380/460 nm using a so-called Victor device at time zero. […]
The fluorescence values make it possible to calculate a concentration-effect for each of the compounds. […]

Data set [2] deals with human skeletal cells (SKM). The data set is described as follows: Protective effect on cell death induced by maitotoxin on human skeletal cells (SKM), WST-1. It counts as cell-based. To be noted: read-out: EC50 (concentration which protects 50% of the cells from cell death). An excerpt:
Protective Effect of the Compounds According to the Invention on Cell Death Induced by Maitotoxin on Human Skeletal Cells (SKM)
The principle of the test is the following: maitotoxin is a toxin which causes the opening of the calcium channels of cells. The resulting intra-cellular flow of calcium is at the origin of the death of the cell. During this process of cell death, a cysteine-dependent protease, calpain, is activated, and an abundance of free radicals is produced. The test consists of incubating the cells in the presence of the molecules to be tested, in order to delay or inactivate cell death and thus determine the protective effect.
The myoblasts are seeded at 2500 cells per well in 96-well plates in a DMEM 10% FCS (foetal calf serum) culture medium supplemented with amphotericin B, human recombinant epidermal growth factor and dexamethasone. […]
After an incubation time of 3 h or 96 h, the culture medium is replaced by a DMEM 10% FCS medium supplemented by 10% WST-1, WST-1 (Roche, reference 1644807) is a reagent which stains metabolically active cells, i.e. live cells. […] Then the number of live cells is determined using a Perkin-Elmer Wallac Envision 2101 device by reading the absorbance at 450 nm. The concentration-effect of the products on the cell survival fraction is then calculated. […]
A general note: Tetrazolium assays rely on reduction of a dye to a coloured formazan, in cell work by metabolically active cells.

The mark [3] stands for this setting: compound 50 μM as co-treatment with gentamycin 1 μg/ml.

“And” between values parts separate entries of the source, which are not always exact repeats. Identical values can stand only once. Like-named read-outs stand apart in the source and are kept apart here.

With `CC(=O)OC1OCC[C@@H]1NC(=O)[C@H](CC(C)C)NC(=N)c1ccc2c(c1)Nc1ccccc1S2.I` (stereo partly drawn) [Example 4, (3S)-3-({N-[imino(10H-phenothiazin-2-yl)methyl]-L-leucyl}amino)tetrahydrofuran-2-yl acetate hydroiodide], the EC50 in data set [1] was determined as 51 µM. In addition, the “protection of the ciliated cells damaged by the gentamycin treatment” value in data set [1] (setting [3]) is listed as 36.2%. The “control % (% staining signal of the ciliated cells)” value (from here on “control %”) in data set [1] (compound 50 μM as co-treatment with gentamycin 1 μg/ml, 24 hours, 5-day old fish, acetate hydroiodide) was 49% and 49 ± 5%.

As to `CC(C)C[C@H](NC(=N)c1ccc2c(c1)Nc1ccccc1S2)C(=O)N[C@H]1CCOC1O.I` (stereo partly drawn) [Example 5, N^1-[(3S)-2-hydroxytetrahydrofuran-3-yl]-N^2-[imino(10H-phenothiazin-2-yl)methyl]-L-leucinamide hydroiodide], the EC50 in data set [1] is 32 µM. Moreover, the “protection of the ciliated cells damaged by the gentamycin treatment” value in data set [1] (setting [3]) was 40%. Moreover, the “control %” value in data set [1] (compound 50 μM as co-treatment with gentamycin 1 μg/ml, 24 hours, 5-day old fish, hydroiodide) was 52% and 52 ± 10%. In addition, in the data set with calpain, the IC50 is less than 20 µM.

With `C[C@H]1C[C@@H]2[C@H]([C@@H](O)C[C@@]3(C)[C@H]2CC[C@]3(O)C(=O)CO)[C@@]2(C)C=CC(=O)C=C12` [a-methylprednisolone], the EC50 in data set [2] (after incubation for 3 hours in the presence of maitotoxin) came to 354 µM; in data set [2] (after incubation for 96 hours in the presence of maitotoxin), 196 µM.

Turning to Gentamycin [reference compound], the “loss of the ciliated cells following treatment with gentamycin” value in data set [1] (gentamycin 1 μg/ml alone, 24 hours) is reported as 80%. The “control %” value was 20 ± 0.6% in data set [1] (gentamycin 1 μg/ml alone, 24 hours (negative control)) and 20% in data set [1] (gentamycin 1 μg/ml alone, 24 hours (negative control), listed as gentamycin).
